Experimental data published in patent publication US8791132B2, “Compounds and methods for treatment of hypertension” (Medivation Technologies, Inc., priority 2011, dated 2014).
Where two headings read alike, the source gives them in different places.

Legend:
[1] = target: T1, human recombinant adrenergic α2B receptor (Homo sapiens, UniProt P18089); experiment: Radioligand binding, adrenergic α2B ([3H]Rauwolscine)
T1 construct: expressed in transfected cells; host or cells: CHO-K1
T1 sequence (P18089 1-450): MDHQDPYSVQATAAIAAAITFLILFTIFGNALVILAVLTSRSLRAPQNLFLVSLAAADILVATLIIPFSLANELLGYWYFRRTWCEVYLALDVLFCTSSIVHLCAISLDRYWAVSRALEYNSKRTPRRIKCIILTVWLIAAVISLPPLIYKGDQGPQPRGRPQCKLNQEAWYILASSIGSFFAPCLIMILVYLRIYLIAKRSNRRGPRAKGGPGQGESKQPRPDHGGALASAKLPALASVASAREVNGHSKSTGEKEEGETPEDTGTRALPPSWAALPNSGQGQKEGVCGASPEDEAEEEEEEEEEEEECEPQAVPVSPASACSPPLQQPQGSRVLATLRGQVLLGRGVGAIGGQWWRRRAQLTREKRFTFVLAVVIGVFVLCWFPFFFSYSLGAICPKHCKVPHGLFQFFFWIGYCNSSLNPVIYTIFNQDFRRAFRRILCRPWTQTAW
In short: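 Membranes from CHO-K1 cells expressing human recombinant α2B, in 50 mM Tris-HCl pH 7.4, 12.5 mM MgCl2, 1 mM EDTA, 0.2% BSA, incubated with compound and 2.5 nM [3H]Rauwolscine, 60 min, 25 °C.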

[2] = target: T2, human recombinant adrenergic α2A receptor (Homo sapiens, UniProt P08913); experiment: Radioligand binding, adrenergic α2A ([3H]MK-912)
T2 construct: expressed in transfected cells; host or cells: insect Sf9 cells
T2 sequence (P08913 1-465): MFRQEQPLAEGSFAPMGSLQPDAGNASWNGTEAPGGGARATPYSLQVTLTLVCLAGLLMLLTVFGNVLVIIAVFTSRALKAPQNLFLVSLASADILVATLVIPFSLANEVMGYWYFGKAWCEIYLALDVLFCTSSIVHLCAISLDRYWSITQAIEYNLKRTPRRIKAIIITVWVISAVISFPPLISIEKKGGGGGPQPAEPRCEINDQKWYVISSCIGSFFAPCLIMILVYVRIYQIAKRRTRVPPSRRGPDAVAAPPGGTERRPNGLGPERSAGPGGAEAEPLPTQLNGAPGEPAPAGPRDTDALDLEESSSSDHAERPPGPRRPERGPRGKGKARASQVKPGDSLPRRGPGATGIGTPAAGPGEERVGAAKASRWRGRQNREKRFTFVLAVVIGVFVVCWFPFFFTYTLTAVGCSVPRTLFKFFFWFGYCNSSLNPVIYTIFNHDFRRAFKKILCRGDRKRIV
In short: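 Sf9 membranes, 1 nM [3H]MK-912, 60 min, 25 °C, Tris-HCl pH 7.4/MgCl2/EDTA buffer. NSB: 10 μM WB-4101. Filtration, counting; % inhibition of specific binding.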

[3] = target: T3, rat adrenergic α1B receptor (Rattus norvegicus, UniProt P15823); experiment: Radioligand binding, adrenergic α1B ([3H]Prazosin)
T3 construct: rat adrenergic α1B receptor obtained from Wistar Rat liver; from tissue; host or cells: Wistar rat liver
T3 sequence (P15823 1-515): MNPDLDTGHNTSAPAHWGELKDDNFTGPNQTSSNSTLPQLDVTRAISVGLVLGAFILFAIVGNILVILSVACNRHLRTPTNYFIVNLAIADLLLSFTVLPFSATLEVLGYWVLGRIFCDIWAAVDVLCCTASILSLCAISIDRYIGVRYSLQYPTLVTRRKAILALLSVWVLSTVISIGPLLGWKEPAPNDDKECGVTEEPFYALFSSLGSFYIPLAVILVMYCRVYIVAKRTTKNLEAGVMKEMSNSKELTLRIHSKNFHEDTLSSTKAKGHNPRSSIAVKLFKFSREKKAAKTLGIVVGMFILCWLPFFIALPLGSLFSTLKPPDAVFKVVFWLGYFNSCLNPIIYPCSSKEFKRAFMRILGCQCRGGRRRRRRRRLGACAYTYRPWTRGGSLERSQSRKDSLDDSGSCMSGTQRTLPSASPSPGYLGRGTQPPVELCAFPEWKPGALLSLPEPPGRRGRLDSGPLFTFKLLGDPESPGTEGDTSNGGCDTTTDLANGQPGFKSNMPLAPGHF
In short: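 Specific binding, taken as total minus that remaining with 10 μM phentolamine, is measured after filtration and counting. Rat liver receptor preparation and 0.25 nM [3H]prazosin are incubated with compound in 50 mM Tris-HCl (pH 7.4, 0.5 mM EDTA) at 25° C for 60 min. Activity is reported as percent inhibition.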

[4] = target: T4, human recombinant adrenergic α1D receptor (Homo sapiens, UniProt P25100); experiment: Radioligand binding, adrenergic α1D ([3H]Prazosin)
T4 construct: expressed in transfected cells; host or cells: HEK-293
T4 sequence (P25100 1-572): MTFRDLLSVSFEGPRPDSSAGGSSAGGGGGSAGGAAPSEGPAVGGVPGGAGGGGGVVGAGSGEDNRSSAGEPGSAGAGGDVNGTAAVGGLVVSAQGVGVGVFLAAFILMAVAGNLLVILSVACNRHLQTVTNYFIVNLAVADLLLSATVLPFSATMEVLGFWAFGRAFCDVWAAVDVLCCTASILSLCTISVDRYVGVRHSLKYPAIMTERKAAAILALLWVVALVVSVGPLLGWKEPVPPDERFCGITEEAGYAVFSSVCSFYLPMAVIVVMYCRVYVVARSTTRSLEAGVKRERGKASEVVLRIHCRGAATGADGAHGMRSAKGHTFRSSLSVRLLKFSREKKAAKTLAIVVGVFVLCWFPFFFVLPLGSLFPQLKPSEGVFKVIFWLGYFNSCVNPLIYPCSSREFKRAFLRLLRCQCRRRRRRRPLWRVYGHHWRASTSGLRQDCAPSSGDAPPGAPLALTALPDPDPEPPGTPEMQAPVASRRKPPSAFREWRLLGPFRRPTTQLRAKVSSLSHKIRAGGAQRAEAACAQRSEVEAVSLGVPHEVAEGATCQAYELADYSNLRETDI
Protocol: Compounds were incubated with 0.6 nM [3H]Prazosin for 60 min at 25° C. Non-specific binding was estimated in the presence of 10 μM phentolamine. Receptor proteins were filtered and washed, the filters were then counted to determine [3H]Prazosin specifically bound. […] Biochemical assay results are presented as the percent inhibition of specific binding in Table B1.

[5] = 0.1 μM compound, read-out: Percentage inhibition of ligand binding, Adrenergic α2B
[6] = 0.1 μM compound, read-out: Percentage inhibition of ligand binding, Adrenergic α2A
[7] = 0.1 μM compound, read-out: Percentage inhibition of ligand binding, Adrenergic α1B
[8] = 0.1 μM compound, read-out: Percentage inhibition of ligand binding, Adrenergic α1D
[9] = compound at 0.1 μM, [3H]Rauwolscine, repeat assays, each datapoint shown, read-out: Percentage inhibition of ligand binding, Adrenergic α2B
[10] = compound at 0.1 μM, [3H]MK-912, repeat assays, each datapoint shown, read-out: Percentage inhibition of ligand binding, Adrenergic α2A
[11] = compound at 0.1 μM, [3H]Prazosin, repeat assays, each datapoint shown, read-out: Percentage inhibition of ligand binding, Adrenergic α1B
[12] = compound at 0.1 μM, [3H]Prazosin, repeat assays, each datapoint shown, read-out: Percentage inhibition of ligand binding, Adrenergic α1D
[13] = read-out: Percentage inhibition of ligand binding, Adrenergic α2B (0.1 μM), compound at 0.1 μM, [3H]Rauwolscine, repeat datapoints each shown
[14] = read-out: Percentage inhibition of ligand binding, Adrenergic α2A (0.1 μM), compound at 0.1 μM, [3H]MK-912, repeat datapoints each shown
[15] = read-out: Percentage inhibition of ligand binding, Adrenergic α1B (0.1 μM), compound at 0.1 μM, [3H]Prazosin, repeat datapoints each shown
[16] = read-out: Percentage inhibition of ligand binding, Adrenergic α1D (0.1 μM), compound at 0.1 μM, [3H]Prazosin, repeat datapoints each shown

Row | Structure (SMILES) | inhibition at 0.1 µM [1, 5] | inhibition at 0.1 µM [2, 6] | inhibition at 0.1 µM [3, 7] | inhibition at 0.1 µM [4, 8] | further results
1 | CN1CCc2c(c3cc(Cl)ccc3n2CCC(=O)OC2CCCC2)C1 [compound 88] |  |  |  |  | inhibition at 0.1 µM [1, 9]: 90%; inhibition at 0.1 µM [2, 10]: 2%; inhibition at 0.1 µM [3, 11]: 10%; inhibition at 0.1 µM [4, 12]: 36%
2 | C/C(=C\n1c2c(c3cc(C)ccc31)C1CCC(C2)N1C)c1ccc(Cl)cc1Cl (centres unmarked) [compound 225] |  |  |  |  | inhibition at 0.1 µM [1, 13]: 80%; inhibition at 0.1 µM [2, 14]: 75%; inhibition at 0.1 µM [3, 15]: 27%; inhibition at 0.1 µM [4, 16]: 12%
3 | C/C(=C\n1c2c(c3cc(C)ccc31)CCN(C)C2C)c1ccccc1F (centres unmarked) [compound 96] |  |  |  |  | inhibition at 0.1 µM [1, 13]: 71%; inhibition at 0.1 µM [2, 14]: 29%; inhibition at 0.1 µM [3, 15]: 25%; inhibition at 0.1 µM [4, 16]: 3%
4 | Cc1ccc(CCn2c3c(c4cccnc42)CN2CCCC2C3)cn1 (centres unmarked) [II-234] |  |  |  |  | inhibition at 0.1 µM [1, 13]: 33%; inhibition at 0.1 µM [2, 14]: 7%; inhibition at 0.1 µM [3, 15]: -8%; inhibition at 0.1 µM [4, 16]: -1%
5 | C/C(=C\n1c2c(c3cc(C)ccc31)CN(C)CC2)c1ccnn1C [compound 108] |  |  |  |  | inhibition at 0.1 µM [1, 13]: 88%; inhibition at 0.1 µM [2, 14]: 20%; inhibition at 0.1 µM [3, 15]: 42%; inhibition at 0.1 µM [4, 16]: 21%
6 | Cc1ccc2c(c1)c1c(n2CCc2ccccn2)CCN(C)C1 [compound 84] |  |  |  |  | inhibition at 0.1 µM [1, 9]: 84%; inhibition at 0.1 µM [2, 10]: 27%; inhibition at 0.1 µM [3, 11]: 69%; inhibition at 0.1 µM [4, 12]: 36%
7 | COc1ccc(/C(C)=C/n2c3c(c4cc(C)ccc42)CCN(C)CC3)c(F)c1 [compound 222] |  |  |  |  | inhibition at 0.1 µM [1, 13]: 104%; inhibition at 0.1 µM [2, 14]: 96%; inhibition at 0.1 µM [3, 15]: 95%; inhibition at 0.1 µM [4, 16]: 101%
8 | CN1CCc2c(c3cccc(Cl)c3n2CC(C)(O)c2ccncc2)C1 (centres unmarked) [compound 32] |  |  |  |  | inhibition at 0.1 µM [1, 9]: 86%; inhibition at 0.1 µM [2, 10]: 28%; inhibition at 0.1 µM [3, 11]: 12%; inhibition at 0.1 µM [4, 12]: 7%
9 | CN1CCc2c(c3cccnc3n2CCc2ccc(C(F)(F)F)nc2)C1 [II-103, 6-methyl-9-(2-(6-(trifluoromethyl)pyridin-3-yl)ethyl)-6,7,8,9-tetrahydro-5H-pyrrolo[2,3-b:4,5-c′]dipyridine] | 35% | -5% | 1% | 8% | 

Second part, led by results:

Row | inhibition at 0.1 µM [1, 5] | inhibition at 0.1 µM [2, 6] | inhibition at 0.1 µM [3, 7] | inhibition at 0.1 µM [4, 8] | Structure (SMILES) | further results
10 | 86% | 67% | 14% | 29% | Cc1ccc2c(c1)c1c(n2C2=C(c3cccnc3)CCC2)CCN(C)C1 [compound 300, 2,8-dimethyl-5-(2-(pyridin-3-yl)cyclopent-1-enyl)-2,3,4,5-tetrahydro-1H-pyrido[4,3-b]indole] | 
11 | -4% | 58% | -5% | 4% | Cc1cc(-c2sccc2C)c2c(c1)c1c(n2CCc2ccc(C)nc2)CCN(C)C1 [compound 327] | 
12 | 99% | 60% | 82% | 73% | C/C(=C\n1c2c(c3cc(C)cnc31)CN(C)CC2)c1ccc(F)cc1 [compound 335, 9-[2-(4-fluoro-phenyl)-propenyl]-3,6-dimethyl-6,7,8,9-tetrahydro-5H-1,6,9-triaza-fluorene] | 
13 | 71% | 62% | 16% | 51% | Cc1ccc2c(c1)c1c(n2C2=C(c3cnc(N(C)C)nc3)CCC2)CCN(C)C1 [compound 303, 5-(2-(2,8-dimethyl-3,4-dihydro-1H-pyrido[4,3-b]indol-5(2H)-yl)cyclopent-1-enyl)-N,N-dimethylpyrimidin-2-amine] | 
14 | 79% | 93% | 20% | 41% | Cc1ccc2c(c1)c1c(n2C2=C(c3cc4ccccc4s3)CCC2)CCN(C)C1 [compound 305, 5-(2-(benzo[b]thiophen-2-yl)cyclopent-1-enyl)-2,8-dimethyl-2,3,4,5-tetrahydro-1H-pyrido[4,3-b]indole] | 
15 | 99% | 58% | 98% | 72% | Cc1ccc2c(c1)c1c(n2C#Cc2ccc(S(N)(=O)=O)cc2)CCN(C)C1 [compound 330, 4-(2,8-dimethyl-1,2,3,4-tetrahydro-pyrido[4,3-b]indol-5-ylethynyl)-benzenesulfonamide] | 
16 | 90% | 72% | 67% | 47% | C/C(=C\n1c2c(c3cc(Cl)ccc31)CN(C)CC2)c1ccc(S(C)(=O)=O)cc1 [compound 281] | 
17 | 4% | 63% | 13% | 8% | Cc1ccc(CCn2c3c(c4c(Cl)c(Cl)ccc42)CN(C)CC3)cn1 [compound 319] | 
